5 molecules from patent publication US20130029391A1, “METHOD OF PREPARING KODA USING LEMNA PAUCICOSTATA” (priority 2010, published 2013) can be followed below.

Data set [1] deals with Lemna paucicostata SH strain allene oxide synthase SHLpAOS, SEQ ID NO: 4. Put plainly: kinetic analysis of SHLpAOS with 9-HPOT (A234 decrease, Hanes-Woolf plot). It is filed as biochemical. As to the method: (§1) SHLpAOS obtained from Lemna paucicostata SH strain was subjected to kinetic analysis. […] The substrate 9-HPOT was tested at the substrate concentration of 5-53 μM. The substrate 9-HPOT was added as an EtOH solution, and the final concentration of EtOH was adjusted to 1%. 100 μl of the reaction mixture was added into a cuvette, and a decrease in absorbance at 234 nm was scanned over time for 1 minute at an interval of 2 seconds using the SmartSpec Plus Spectrophotometer (Bio-Rad). From the A234 determined, the amount of the reaction product was calculated (e=25,000). […] It is believed that compared to AtAOS, SHLpAOS is a very useful AOS in the practical production of KODA.

Data set [2] deals with Lemna paucicostata SH strain position 9-product specific lipoxygenase SHLpLOX (LpLOX-SH), SEQ ID NO: 3. Conditions: 40 mM phosphate buffer (pH 6.0), 0.1% Tween 80, 25° C; substrate 10-100 μM. As to the method: The sequence of SHLpLOSX obtained was introduced into a vector (pET23d, Novagen) for protein expression, and then transformed into Escherichia coli (BL21(DE3), Novagen), so as to allow the expression of SHLpLOX protein. Using this SHLpLOX protein, the activity test in KODA production was carried out. […] Using a reaction mixture comprising 40 mM phosphate buffer (pH 6.0) and 0.1% Tween 80, the analysis was carried out at a temperature of 25° C. […] The amount of the reaction product was calculated from the […] determined (e=25,000). Kinetic parameters were determined using the Hanes-Woolf plot ([S]/v versus [S] plot).

Data set [3] has as its target rice germ position 9-specific lipoxygenase r9-LOX1 (Oryza sativa, UniProt Q76I22). Conditions: 40 mM phosphate buffer (pH 6.0), 0.1% Tween 80, 25° C; substrate 10-100 μM.
Procedure: Using a reaction mixture comprising 40 mM phosphate buffer (pH 6.0) and 0.1% Tween 80, the analysis was carried out at a temperature of 25° C. […] The amount of the reaction product was calculated from the [MUT] determined (e=25,000). Kinetic parameters were determined using the Hanes-Woolf plot ([S]/v versus [S] plot).
Substrate in data set [4]: CC/C=C\C/C=C\C=C\[C@H](CCCCCCCC(=O)O)OO
Put plainly: kinetic analysis of AtAOS with 9-HPOT (A234 decrease, Hanes-Woolf plot). It is filed as biochemical, Arabidopsis thaliana. Conditions: other: 40 mM phosphate buffer (pH 7.5), 1% EtOH, 25° C, substrate 5-53 μM. As to the method: (§2) To 20 μl of this 9-HPOT reaction mixture, 0.32 ng of the SHLpAOS protein or A. thaliana-derived AOS (AtAOS) protein was added and reacted at room temperature for 10 minutes. After the reaction was over, the reaction was terminated by a heat treatment at 50° C. for 3 minutes. 10 μl of this solution was analyzed by HPLC. HPLC analysis was carried out with a column: Capcell pak C-18 UG120 (4.6×250 mm), and using mobile phase: 50% acetonitrile solution (0.02% TFA), flow rate: 1 ml/min, detection wavelength: 210 nm.
as §1

Data set [5] can be described thus: Activity test in KODA production: HPLC of linolenic acid hydroperoxide formed by LOX. Conditions: 5 mM linolenic acid solution, pH 7, room temperature, 30 minutes; FIG. 4. In kind it is biochemical. As to the method: HPLC analysis was carried out with a column: Capcell pak C-18 UG120 (4.6×250 mm, Shiseido), by using column temperature: 40° C., mobile phase: 50% acetonitrile solution (0.02% TFA), flow rate: 1 ml/min, detection wavelength: 210 nm.

The nature of data set [6]: Kinetic analysis of 9-LOX, absorbance at 234 nm, Hanes-Woolf plot. It is filed as biochemical. Conditions: SHLpLOX versus r9-LOX1. As to the method:
The substrate α-linolenic acid was tested at the substrate concentration of 10-100 μM. 100 μl of the reaction mixture was added into a cuvette, and absorbance at 234 nm was scanned over time for 10 minutes at an interval of 15 seconds using the SmartSpec Plus Spectrophotometer (Bio-Rad).

Data set [7] is described as follows: Activity test in KODA production: AOS reacted with 9-HPOT reaction mixture, HPLC. In kind it is biochemical. Conditions: 0.32 ng protein, 20 μl 9-HPOT reaction mixture, room temperature, 10 minutes; FIG. 5. As to the method:
as §2

A short description of data set [8]: Kinetic analysis of AOS, decrease in absorbance at 234 nm, Hanes-Woolf plot. It is filed as biochemical. Conditions: SHLpAOS versus AtAOS. As to the method: as §1
Setting [9] is: 40 mM phosphate buffer (pH 7.5), 1% EtOH, 25° C, substrate 5-53 μM.
Where [10] appears, read: higher in SHLpAOS than in AtAOS.

rice germ position 9-specific lipoxygenase r9-LOX1, sequence (Q76I22 whole entry): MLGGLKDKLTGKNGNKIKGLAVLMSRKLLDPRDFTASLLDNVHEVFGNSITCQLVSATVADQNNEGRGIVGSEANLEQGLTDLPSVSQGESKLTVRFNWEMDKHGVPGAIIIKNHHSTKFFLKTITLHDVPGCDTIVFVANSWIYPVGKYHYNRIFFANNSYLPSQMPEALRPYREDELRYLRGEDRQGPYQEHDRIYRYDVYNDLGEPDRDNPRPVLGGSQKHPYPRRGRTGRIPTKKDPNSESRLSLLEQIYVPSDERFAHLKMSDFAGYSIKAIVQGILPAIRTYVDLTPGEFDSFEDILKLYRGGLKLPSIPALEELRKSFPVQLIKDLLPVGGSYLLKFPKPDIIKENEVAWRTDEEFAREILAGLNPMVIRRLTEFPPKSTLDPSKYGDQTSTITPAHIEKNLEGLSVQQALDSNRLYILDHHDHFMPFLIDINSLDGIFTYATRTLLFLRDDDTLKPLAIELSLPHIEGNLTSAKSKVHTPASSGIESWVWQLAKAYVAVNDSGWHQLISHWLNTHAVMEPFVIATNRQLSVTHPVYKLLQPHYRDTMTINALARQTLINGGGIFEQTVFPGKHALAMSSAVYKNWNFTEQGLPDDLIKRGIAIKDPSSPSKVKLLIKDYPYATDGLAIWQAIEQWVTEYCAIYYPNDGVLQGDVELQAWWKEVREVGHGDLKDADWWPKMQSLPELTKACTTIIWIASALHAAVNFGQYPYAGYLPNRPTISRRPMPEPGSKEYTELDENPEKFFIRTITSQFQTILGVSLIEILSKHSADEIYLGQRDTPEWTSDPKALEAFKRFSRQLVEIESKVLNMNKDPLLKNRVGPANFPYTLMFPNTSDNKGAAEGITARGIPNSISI

As usually defined, the Km is the substrate concentration at which the rate is half of its maximum. In general, Vmax refers to the rate approached at saturating substrate. The kcat is the maximal rate divided by the concentration of active sites. With `CC/C=C\C/C=C\C=C\[C@H](CCCCCCCC(=O)O)OO` [9-HPOT, 9-hydroperoxylinolenic acid], in data set [1] (setting [9]), the Michaelis constant (Km) came out at 7.1 ± 1.9 µM, the maximal velocity (Vmax) amounted to 4.7 ± 0.3 µmol/s and the turnover number (kcat) came to 709.2 ± 44.3 s⁻¹. In data set [1] (setting [10]), the “Kcat, SHLpAOS relative to AtAOS” value was “about 2.8 fold” and the “Vmax, SHLpAOS relative to AtAOS” value is “about 2.8 fold”.

On to `CC/C=C\C/C=C\C/C=C\CCCCCCCC(=O)O` [α-linolenic acid, cis-9,12,15-octadecatrienoic acid], for which, in data set [2], the Km was 19.2 ± 4.1 µM, the maximal velocity (Vmax) was found to be 3.0 ± 0.1 µmol/min and the kcat came out at 12.8 ± 0.538 s⁻¹. For the same molecule, in data set [3], the Km was determined as 22.9 ± 1.6 µM, the Vmax worked out at 2.8 ± 0.6 µmol/min and the catalytic constant (kcat) was 10.24 ± 2.077 s⁻¹.

B1: Arabidopsis thaliana allene oxide synthase AtAOS (Arabidopsis thaliana) (protein)
chain: SGSETPDLTVATRTGSKDLPIRNIPGNYGLPIVGPIKDRWDYFYDQGAEEFFKSRIRKYNSTVYRVNMPPGAFIAENPQVVALLDGKSFPVLFDVDKVEKKDLFTGTYMPSTELTGGYRILSYLDPSEPKHEKLKNLLFFLLKSSRNRIFPEFQATYSELFDSLEKELSLKGKADFGGSSDGTAFNFLARAFYGTNPADTKLKADAPGLITKWVLFNLHPLLSIGLPRVIEEPLIHTFSLPPALVKSDYQRLYEFFLESAGEILVEADKLGISREEATHNLLFATCFNTWGGMKILFPNMVKRIGRAGHQVHNRLAEEIRSVIKSNGGELTMGAIEKMELTKSVVYECLRFEPPVTAQYGRAKKDLVIESHDAAFKVKAGEMLYGYQPLATRDPKIFDRADEFVPERFVGEEGEKLLRHVLWSNGPETETPTVGNKQCAGKDFVVLVARLFVIEIFRRYDSFDIEVGTSPLGSSVNFSSLRKASF
In general, kcat/Km refers to the turnover number divided by the Michaelis constant. As for B1, in data set [4], the Michaelis constant (Km) is 36.3 ± 1.3 µM, the Vmax was 102 µmol/min, the kcat was 256 ± 4.8 s⁻¹ and the kcat/Km was 7e+06 ± 3.8e+06 M⁻¹ s⁻¹.

B2: SHLpLOX: position 9-product specific lipoxygenase derived from Lemna paucicostata SH strain (SEQ ID NO: 3), expressed in Escherichia coli (protein, listed as Lemna paucicostata)
chain: MAGFLQKVTDNLLHKAAKISGTVVLVKSNVVGFNDFADSFLDGLHELLGSGITFQLVSATVGDPKNGNKGKLGKPALLEKWITTGTFLAAGDSGFKVNFEWDEQLGVPGAVIVKNNHHGEFFLKSLTLDGAPGPRSRIHFDCNSWVYPYSTYNYDRVFFANDTYLPGEMPEPLKAYRAAELVNLRGDGVTRELKEGDRIYAYDLYNDLGDPDSGKELARPILGGSEEYPYPRRARTGRKLTKTDPKSEQRLPLVFSLNVYVPRDERFGHLKMSDFLAYSLKALAQGLVPALDAATDITPFEFDTFQDVLNLYEGGINLPTTPALENFKKQIPFPLVKELFRSDGENLFRLPTPSVIKADKFAWRTDEEFGREMLAGVNPVCIRLLKKFPPVSSLDPSIYRNQNSTMIADQLEKNMNGLSVEEALKQKKLFILDHHDSLMPYLERINTFNKIYASRTVLLLQDDGTLKPLAIELSLPVKGEKGAVSKVYTPAEHGVEGAVWQLAKAYVAVNDSGVHQLISHWLNTHATIEPFSIALNRQLSVVHPIYKLLHPHFRDTMNINAFARQILINAGGILEMTVFPGKYAMEMSSVVYKGWKLTDQALPVDLLNRGVAEKDPSSGELRLLIEDYPYAVDGLDVWNAIEEWVKEYCAIYYPSDKTLQDDTEVQAWWKEVREVGHGDKKDETWWPAMETVAELTQTCSTIIWVASALHAAVNFAQYPYAGYLPNRPTISRRFMPEPGTPEYEELETDPDRAFLKTITSQLQTLIGVSLIEILSRHSSDEIYLGQRVSAEWTSDAKALAAFKAFGEKLITIENKIIEMNVDSSLKNRNGPVKVPYTFLYPNTTDYTRVGGLTGRGIPNSISI
As to B2, the “LOX activity (linolenic acid hydroperoxide formed) compared with r9-LOX1” value in data set [5] is “much higher activity than r9-LOX1”. For the same molecule, in data set [6], the “kcat/Km value relative to r9-LOX1” value is given as “about 1.6 fold”.

B3: SHLpAOS: allene oxide synthase derived from Lemna paucicostata SH strain (SEQ ID NO: 4), expressed in Escherichia coli; printed as LpLOX-SH in Table 2 (protein, listed as Lemna paucicostata)
chain: MSVSQSDDKAALVPQKTIPGSYGIPFITPLKDRLDFFSNEYQFFQSRVESYGSTIVRLNAPPGPFMAKNPQVIAILDGKSFPVLFDTSKVEKKNIFTGTYMPSTALTGGYRVCAYLDPSEPNHTKIKQLLLNILFNRKDHVIPEFHRAYEKLFDDMDAEIAKSGKFVFNDHNDGAAFEFLGRLFFGVSPSETELGAGGVKDANLWLFSQLCPLMTLGFLPKLLEDLLLHTFPLPPFLFKGKYQAIYKYISSVATDALTMAENLGLSREEAAHNLLFAVCFNSLGGVKVLFPGILRYIAQAGKNLQASLVSEVRSAVSSTGGELTIEALEKMPLTKSVVYESLRLDPPVKYQYGVVKKDMVIESHDRSYEVKAGETLFGYQPFATRDKKIFGPDADNFVAERFIGEEGAKVLRFVVWSNGPETTDPTPVDKQCPGKNLVVLISRLLVAEFFLRYDFFDAEIGAVPLAVKTTITSLTKATTR
Consider B3, for which the “AOS activity relative to AtAOS protein” value in data set [7] is about 7 fold. Besides, in data set [8], the “affinity for 9-HPOT (Km) relative to AtAOS” value is given as “about 5 fold” and the “kcat/Km value relative to AtAOS” value is “about 14 fold”.
